Assay results taken from patent US7049340B1, “Neuroprotective and retinoprotective ophthalmologic drugs” (priority 1999, dated 2006).
Read-outs that look alike come from different tables or passages of the source.

Key:
treated patients = test: Visual function in treated patients, enalaprilat used instead of ramipril; format: in vivo, human; conditions: comparison enalaprilat vs ramiprilat
Description: It should be remembered that the physico-chemical indications described above originate from the article by Vasmant et al., loc. cit.

rabbit converting enzyme [1] = target: T1, rabbit converting enzyme (Oryctolagus cuniculus, UniProt P12822); conditions: cited from earlier work
T1 construct: host or cells: rabbit lung (only from the title of the cited Shapiro thesis)
T1 sequence (P12822 34-1310): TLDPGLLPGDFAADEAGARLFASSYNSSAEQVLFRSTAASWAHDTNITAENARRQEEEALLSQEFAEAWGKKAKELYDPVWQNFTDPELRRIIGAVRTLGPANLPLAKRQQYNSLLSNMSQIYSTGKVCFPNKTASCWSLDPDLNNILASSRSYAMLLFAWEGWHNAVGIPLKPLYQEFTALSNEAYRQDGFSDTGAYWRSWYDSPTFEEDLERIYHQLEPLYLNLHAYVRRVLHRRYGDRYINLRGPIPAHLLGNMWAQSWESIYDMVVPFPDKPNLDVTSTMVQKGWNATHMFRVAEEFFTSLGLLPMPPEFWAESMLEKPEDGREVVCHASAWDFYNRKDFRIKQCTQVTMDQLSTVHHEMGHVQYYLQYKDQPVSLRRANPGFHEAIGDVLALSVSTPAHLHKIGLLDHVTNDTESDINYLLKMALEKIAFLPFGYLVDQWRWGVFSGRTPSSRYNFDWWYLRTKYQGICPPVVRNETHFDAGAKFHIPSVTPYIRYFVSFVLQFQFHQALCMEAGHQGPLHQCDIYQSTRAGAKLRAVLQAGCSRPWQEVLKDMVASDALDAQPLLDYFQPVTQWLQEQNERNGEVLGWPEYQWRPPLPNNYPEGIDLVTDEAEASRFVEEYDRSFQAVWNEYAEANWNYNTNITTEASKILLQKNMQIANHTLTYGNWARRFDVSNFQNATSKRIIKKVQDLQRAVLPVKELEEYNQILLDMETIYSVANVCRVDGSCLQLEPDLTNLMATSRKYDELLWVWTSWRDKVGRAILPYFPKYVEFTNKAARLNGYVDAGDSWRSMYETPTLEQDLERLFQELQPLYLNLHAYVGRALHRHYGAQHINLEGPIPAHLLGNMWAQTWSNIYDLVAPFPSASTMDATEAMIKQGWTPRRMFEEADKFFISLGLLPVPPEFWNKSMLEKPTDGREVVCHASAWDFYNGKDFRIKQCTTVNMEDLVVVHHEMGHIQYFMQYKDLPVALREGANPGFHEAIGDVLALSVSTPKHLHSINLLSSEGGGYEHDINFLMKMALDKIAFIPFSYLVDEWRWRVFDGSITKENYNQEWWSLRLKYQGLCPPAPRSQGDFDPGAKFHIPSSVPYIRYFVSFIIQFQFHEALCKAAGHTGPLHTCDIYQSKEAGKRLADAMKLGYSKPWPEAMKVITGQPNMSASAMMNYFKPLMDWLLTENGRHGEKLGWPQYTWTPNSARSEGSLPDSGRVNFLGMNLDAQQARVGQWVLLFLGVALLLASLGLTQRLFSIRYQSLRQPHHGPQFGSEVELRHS

rabbit converting enzyme [2] = target: T1, rabbit converting enzyme; test: In vitro inhibition of rabbit converting enzyme (Bünning and Shapiro methods); format: biochemical
Description: Doubtless, such drugs intervene in the CEI action mechanism, in that they act by preventing the transformation of angiotensin I to angiotensin II (vasoconstrictor) and the degradation of bradykinins (vasodilators). These CEIs thus cause vasodilation, which is exerted on arteries and on veins. Thus, they are mixed vasodilators. It should be remembered that the mechanism for the formation of the bond that can be formed between the inhibitor and the enzyme normally occurs in two phases, the first consisting of the formation of an inhibitor-enzyme complex by a competitive bond, which involves a reaction governed by a constant K1, and the second, consisting of a slow isomerisation of the inhibitor-enzyme complex, itself also governed by a reversible rate constant for this reaction, k4.
Comparison with captopril and enalaprilat” in Drug Research 1984; 34:1406–1410, and the doctoral thesis by Shapiro R. (Ph.D. Thesis, Harvard University Cambridge, Mass., 1983 “Activation and inactivation of rabbit pulmonary angiotensin converting enzyme”.

healthy subject = test: General arterial pressure at doses that improve field of vision; format: in vivo, human; conditions: in vivo
Description: Effective doses for producing effects in the ophtalmologic field are desirably lower than doses that would induce general arterial hypotension in a subject with normal pressure. Clearly, the doses that can be used can be higher in subjects with hypertension, although this is not necessary, since the desired effect is that obtained in the ophtalmologic field.

Compound	improvement in visual function in treated patients (treated patients)	constant k4 for the reversible isomerisation of the enzyme-inhibitor complex (rabbit converting enzyme [1]; 50 mM/l Hepes, 300 mmol/l NaCl, 1 micromol/l ZnCl2, pH 7.5)	Ki (rabbit converting enzyme [1]; in vitro, 50 mM/l Hepes, 300 mmol/l NaCl, 1 micromol/l ZnCl2, pH 7.5, read-out: equilibrium inhibition constant K)	stability of enzyme complex relative to enalaprilat (rabbit converting enzyme [2]; from k4)	Ki relative to enalaprilat (rabbit converting enzyme [2]; printed as 'higher than with enalaprilat')	effect on arterial pressure of doses that improve field of vision (healthy subject)	Ki (rabbit converting enzyme [1]; unit inferred, read-out: constant Ki)	constant k4 (rabbit converting enzyme [1]; unit not given)
C[C@H](N[C@@H](CCc1ccccc1)C(=O)O)C(=O)N1CCC[C@H]1C(=O)O [enalaprilat]	moderate improvement	1.1×10^−4 S1	0.05 nM	–	–	–	–	–
C[C@H](N[C@@H](CCc1ccccc1)C(=O)O)C(=O)N1[C@H](C(=O)O)C[C@@H]2CCC[C@@H]21 [ramiprilat]	incomparably better	–	–	six times more stable	7 times	do not cause arterial hypertension	0.007 nM	1.8×10^−5
